Assay results from patent US10975056B2 (GlaxoSmithKline Intellectual Property Development Limited, priority 2016, dated 2021).
“And” between values parts separate entries of the source, which are not always exact repeats. Identical values can stand only once. Counter-ions that a name gives are not always drawn. Like-named read-outs stand apart in the source and are kept apart here.

Columns and labels:
[1] = target: DNMT1 (Homo sapiens, UniProt P26358); assay: DNMT1 biochemical activity, breaklight assay and/or SPA assay
Chain of DNMT1 (P26358 whole entry, looked up): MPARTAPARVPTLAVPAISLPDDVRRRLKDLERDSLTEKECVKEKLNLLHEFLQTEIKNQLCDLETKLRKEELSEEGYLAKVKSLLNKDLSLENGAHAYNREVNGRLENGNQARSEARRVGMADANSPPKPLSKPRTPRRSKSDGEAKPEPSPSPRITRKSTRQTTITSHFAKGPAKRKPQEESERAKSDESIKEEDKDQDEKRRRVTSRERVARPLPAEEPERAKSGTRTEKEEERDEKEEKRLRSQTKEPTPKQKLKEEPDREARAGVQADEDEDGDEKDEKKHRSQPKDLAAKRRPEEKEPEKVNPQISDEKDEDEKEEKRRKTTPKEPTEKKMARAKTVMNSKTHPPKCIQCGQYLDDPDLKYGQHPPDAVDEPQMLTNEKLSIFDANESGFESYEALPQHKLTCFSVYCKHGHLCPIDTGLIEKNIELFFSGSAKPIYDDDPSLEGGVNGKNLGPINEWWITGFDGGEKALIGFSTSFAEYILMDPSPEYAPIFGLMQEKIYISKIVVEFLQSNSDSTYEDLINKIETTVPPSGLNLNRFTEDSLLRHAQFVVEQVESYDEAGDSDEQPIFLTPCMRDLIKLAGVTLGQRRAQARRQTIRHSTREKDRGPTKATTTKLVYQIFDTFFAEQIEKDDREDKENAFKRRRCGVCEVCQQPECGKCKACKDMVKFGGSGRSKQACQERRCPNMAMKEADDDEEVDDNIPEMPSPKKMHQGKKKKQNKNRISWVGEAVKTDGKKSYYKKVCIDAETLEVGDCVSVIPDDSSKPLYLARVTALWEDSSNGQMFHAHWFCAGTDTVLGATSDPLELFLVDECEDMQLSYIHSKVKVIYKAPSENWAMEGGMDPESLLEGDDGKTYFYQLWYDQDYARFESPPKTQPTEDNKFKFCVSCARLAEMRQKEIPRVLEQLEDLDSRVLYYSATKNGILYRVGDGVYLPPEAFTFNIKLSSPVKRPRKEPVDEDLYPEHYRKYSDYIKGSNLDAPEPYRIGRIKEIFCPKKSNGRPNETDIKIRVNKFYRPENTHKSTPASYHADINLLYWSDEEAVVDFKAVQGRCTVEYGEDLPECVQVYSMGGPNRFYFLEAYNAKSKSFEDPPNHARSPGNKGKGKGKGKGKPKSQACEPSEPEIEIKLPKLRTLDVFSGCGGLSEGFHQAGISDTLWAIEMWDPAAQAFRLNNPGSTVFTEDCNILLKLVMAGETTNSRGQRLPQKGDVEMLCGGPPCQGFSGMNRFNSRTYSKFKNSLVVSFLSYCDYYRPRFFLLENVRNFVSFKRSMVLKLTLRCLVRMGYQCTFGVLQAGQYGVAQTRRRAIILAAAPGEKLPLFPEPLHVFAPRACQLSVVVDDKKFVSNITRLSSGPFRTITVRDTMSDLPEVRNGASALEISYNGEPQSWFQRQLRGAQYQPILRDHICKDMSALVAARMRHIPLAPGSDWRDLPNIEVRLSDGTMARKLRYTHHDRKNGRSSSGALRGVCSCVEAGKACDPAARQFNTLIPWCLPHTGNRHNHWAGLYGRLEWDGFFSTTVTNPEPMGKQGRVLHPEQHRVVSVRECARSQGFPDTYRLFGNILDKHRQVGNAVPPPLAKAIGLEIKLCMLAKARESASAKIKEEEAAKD

[2] = tested on: erythroid progenitor cells (EPCs); assay: Fetal hemoglobin (HbF) ELISA in day 7 erythroid progenitor cells; assay type: cell-based, human; settings: Homo sapiens, Erythroid progenitor cell, HbF ELISA, day 7 EPCs, 5 days; read-out: EPC ELISA (pEC50 category) (converted);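 note: for fetal hemoglobin induction normalized to vehicle-treated cells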
Outline: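 CD34+-derived EPCs, 1,000 cells/well, rhEPO 3 U/mL; Compound A 22-pt series, […]; 5 d, 37° C, 5% CO2. Freeze-thaw lysis, anti-HbF capture + HRP anti-HbF, TMB, OD450. Normalized to DMSO wells.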

[3] = binned activity in either the breaklight or the SPA assay
[4] = breaklight assay and/or SPA assay, repeated experimental runs, read-out: average pIC50 against DNMT1 (converted)
[5] = binned activity in either the breaklight or the SPA assay, read-out: DNMT1 BioChemical (pIC50 category) (converted)

DNMT1 BioChemical (pIC50 category) [1, 3] | average pIC50 against DNMT1 ([1]; breaklight assay and/or SPA assay, repeated experimental runs) | IC50 [1, 4] | EC50 [2] [nM] | IC50 [1, 5] [nM] | Compound
D (Category D: ≥6.5) | > 6.5 | 79.4 nM | < 316 |  | CCc1c(C#N)c(S[C@@H](C(N)=O)c2ccccc2)nc(N2CC[C@@H](N)[C@H](O)C2)c1C#N [Example 523, (R)-2-((6-((3R,4R)-4-amino-3-hydroxypiperidin-1-yl)-3,5-dicyano-4-ethylpyridin-2-yl)thio)-2-phenylacetamide 2,2,2-trifluoroacetate*]
D (Category D: ≥6.5) |  |  | 316 to 1000 |  | CCc1c(C#N)c(S[C@@H](C(N)=O)c2ccccc2)nc(N2CC[C@](F)(CN)C2)c1C#N [Example 638, (R)-2-((6-((S)-3-(aminomethyl)-3-fluoropyrrolidin-1-yl)-3,5-dicyano-4-ethylpyridin-2-yl)thio)-2-phenylacetamide]
 |  |  | 1000 to 31600 | 316 to 1000 | CCc1c(C#N)c(SC(C(N)=O)c2ccccc2)nc(N2CCC(N3C(=O)CNC3=O)CC2)c1C#N (stereo not shown) [Example 250, 2-((3,5-Dicyano-6-(4-(2,5-dioxoimidazolidin-1-yl)piperidin-1-yl)-4-ethylpyridin-2-yl)thio)-2-phenylacetamide]
D (Category D: ≥6.5) |  |  | 1000 to 31600 |  | CN(CCCN)c1nc(SC(C(N)=O)c2ccccc2)c(C#N)c(C2CC2)c1C#N (stereo not shown) [Example 391, 2-((6-((3-Aminopropyl) (methyl)amino-3,5-dicyano-4-cyclopropylpyridin-2-yl)thio-2-phenylacetamide, Hydrochloride]
 |  |  | > 31600 | 316 to 1000 | CCc1c(C#N)c(SCc2ccc(CNC(=O)CC(C)C)cc2)nc(N2CCCN(C)CC2)c1C#N [Example 89, N-(4-(((3,5-Dicyano-4-ethyl-6-(4-methyl-1,4-diazepan-1-yl)pyridin-2-yl)thio)methyl)benzyl)-3-methylbutanamide]
D (Category D: ≥6.5) |  |  | 1000 to 31600 |  | CCc1c(C#N)c(S[C@@H](C(N)=O)c2ccccc2)nc(N2CC[C@@](O)(CO)C2)c1C#N [Example 654, (R)-2-((3,5-dicyano-4-ethyl-6-((S)-3-hydroxy-3-(hydroxymethyl)pyrrolidin-1-yl)pyridin-2-yl)thio)-2-phenylacetamide]
D (Category D: ≥6.5) |  |  | > 31600 |  | CCc1c(C#N)c(SCc2ccc(N3CCCCS3(=O)=O)cc2)nc(N2CCC(NCC(C)(C)C)CC2)c1C#N [Example 604, 2-((4-(1,1-dioxido-1,2-thiazinan-2-yl)benzyl)thio)-4-ethyl-6-(4-(neopentylamino)piperidin-1-yl)pyridine-3,5-dicarbonitrile]
D (Category D: ≥6.5) |  |  | 316 to 1000 |  | CCc1c(C#N)c(SC(C(N)=O)c2ccccc2)nc(N(C)CC(=O)NCCCO)c1C#N (stereo not shown) [Example 677, 2-((6-((2-amino-2-oxo-1-phenylethyl)thio)-3,5-dicyano-4-ethylpyridin-2-yl)(methyl)amino)-N-(3-hydroxypropyl)acetamide]
 |  |  | 316 to 1000 | 1000 to 31600 | CCc1c(C#N)c(SC(C(N)=O)c2ccccc2)nc(N2CCN(S(=O)(=O)c3ccccc3)CC2)c1C#N (stereo not shown) [Example 159, 2-((3,5-Dicyano-4-ethyl-6-(4-(phenylsulfonyl)piperazin-1-yl)pyridin-2-yl)thio)-2-phenylacetamide]
D (Category D: ≥6.5) |  |  | < 316 |  | CCc1c(C#N)c(SC(C(N)=O)c2ccccc2)nc(N(C)CC(=O)N2C[C@H](O)C[C@H](O)C2)c1C#N (stereo partly drawn) [Example 659, 2-((3,5-dicyano-6-((2-((3R,5S)-3,5-dihydroxypiperidin-1-yl)-2-oxoethyl)(methyl)amino)-4-ethylpyridin-2-yl)thio)-2-phenylacetamide]
 |  |  | > 31600 | 316 to 1000 | CCc1c(C#N)c(SCc2ccccc2)nc(N2CCC(NC(=O)CN)CC2)c1C#N [Example 94, 2-Amino-N-(1-(6-(benzylthio)-3,5-dicyano-4-ethylpyridin-2-yl)piperidin-4-yl)acetamide, Trifluoroacetic Acid Salt]
 |  |  | < 316 | < 316 | CCc1c(C#N)c(SC(C(N)=O)c2ccc(F)cc2)nc(N2CCC[C@H](CN)C2)c1C#N (stereo partly drawn) [Example 593, 2-((6-((R)-3-(aminomethyl)piperidin-1-yl)-3,5-dicyano-4-ethylpyridin-2-yl)thio)-2-(4-fluorophenyl)acetamide]
D (Category D: ≥6.5) |  |  | < 316 |  | CCc1c(C#N)c(SC(C(N)=O)c2ccccc2)nc(N(C)CCN2CC[C@H](N(C)C)C2)c1C#N (stereo partly drawn) [Example 517, 2-((3,5-dicyano-6-((2-((S)-3-(dimethylamino)pyrrolidin-1-yl)ethyl)(methyl)amino)-4-ethylpyridin-2-yl)thio)-2-phenylacetamide]
D (Category D: ≥6.5) |  |  | 1000 to 31600 |  | CCc1c(C#N)c(SC(C(N)=O)c2ccccc2)nc(N2CC(OC(=O)C(N)C(C)C)C2)c1C#N (stereo in doubt) [Example 333, (2R)-1-(6-((2-Amino-2-oxo-1-phenylethyl)thio)-3,5-dicyano-4-ethylpyridin-2-yl)azetidin-3-yl 2-amino-3-methylbutanoate]
 |  |  | 1000 to 31600 | 316 to 1000 | CCc1c(C#N)c(SC(C(N)=O)c2ccccc2)nc(N2CCC(C(N)=O)CC2)c1C#N (stereo not shown) [Example 217, 1-(6-((2-Amino-2-oxo-1-phenylethyl)thio)-3,5-dicyano-4-ethylpyridin-2-yl)piperidine-4-carboxamide]
 |  | ≥ 1000 nM | 316 to 1000 | 1000 to 31600 | CCc1c(C#N)c(SC(C(N)=O)c2ccccc2)nc(N2CCCN(CC(=O)OC)CC2)c1C#N (stereo not shown) [Example 108, Methyl 2-[4-(6-{[carbamoyl(phenyl)methyl]sulfanyl}-3,5-dicyano-4-ethylpyridin-2-yl)-1,4-diazepan-1-yl]acetate]
 |  |  | > 31600 | 316 to 1000 | CCc1c(C#N)c(SCc2ccc(CNC(=O)C(C)C)cc2)nc(N2CCCN(C)CC2)c1C#N [Example 88, N-(4-(((3,5-Dicyano-4-ethyl-6-(4-methyl-1,4-diazepan-1-yl)pyridin-2-yl)thio)methyl)benzyl)isobutyramide]
 |  |  | 1000 to 31600 | 1000 to 31600 | CCc1c(C#N)c(SCc2ccc(CNC(=O)CN)cc2)nc(N(C)C)c1C#N [Example 268, 2-Amino-N-(4-(((3,5-dicyano-6-(dimethylamino)-4-ethylpyridin-2-yl)thio)methyl)benzyl)acetamide]
 |  |  | 1000 to 31600 | 316 to 1000 | CCc1c(C#N)c(SC(C(N)=O)c2cccnc2)nc(N2CC[C@H](O)C2)c1C#N (stereo partly drawn) [Example 181, 2-((3,5-Dicyano-4-ethyl-6-((S)-3-hydroxypyrrolidin-1-yl)pyridin-2-yl)thio)-2-(pyridin-3-yl)acetamide]
D (Category D: ≥6.5) |  |  | 1000 to 31600 |  | N#Cc1c(SC(C(N)=O)c2ccccc2)nc(N2CCC[C@@H](O)C2)c(C#N)c1C1CC1 (stereo partly drawn) [Example 32, 2-((3,5-dicyano-4-cyclopropyl-6-((R)-3-hydroxypiperidin-1-yl)pyridin-2-yl)thio)-2-phenylacetamide]
D (Category D: ≥6.5) |  |  | 1000 to 31600 |  | N#Cc1c(SC(C(N)=O)c2ccccc2)nc(N2CC(NC(=O)[C@H](N)CO)C2)c(C#N)c1C1CC1 (stereo partly drawn) [Example 614, (2R)-2-amino-N-(1-(6-((2-amino-2-oxo-1-phenylethyl)thio)-3,5-dicyano-4-cyclopropylpyridin-2-yl)azetidin-3-yl)-3-hydroxypropanamide]
 |  | 316 to 1000 nM and 794 nM | 316 to 1000 | 316 to 1000 | CCc1c(C#N)c(SCc2ccc(S(C)(=O)=O)cc2)nc(N2CCCN(C)CC2)c1C#N [Example 379, 4-Ethyl-2-(4-methyl-1,4-diazepan-1-yl)-6-((4-(methylsulfonyl)benzyl)thio)pyridine-3,5-dicarbonitrile]
 |  |  | 1000 to 31600 | 316 to 1000 | CCc1c(C#N)c(SCc2ccc(NS(C)(=O)=O)c(F)c2)nc(N2CCCN(C)CC2)c1C#N [Example 361, N-(4-(((3,5-Dicyano-4-ethyl-6-(4-methyl-1,4-diazepan-1-yl)pyridin-2-yl)thio)methyl)-2-fluorophenyl)methanesulfonamide]
D (Category D: ≥6.5) |  |  | < 316 |  | CCc1c(C#N)c(SC(C(N)=O)c2ccccc2)nc(N2CCOC(CN3CCCC3)C2)c1C#N (stereo not shown) [Example 560, 2-((3,5-dicyano-4-ethyl-6-(2-(pyrrolidin-1-ylmethyl)morpholino)pyridin-2-yl)thio)-2-phenylacetamide]

Compound | DNMT1 BioChemical (pIC50 category) [1, 3] | average pIC50 against DNMT1 ([1]; breaklight assay and/or SPA assay, repeated experimental runs) | IC50 [1, 4] | EC50 [2] [nM] | IC50 [1, 5] [nM]
CCc1c(C#N)c(SC(C(N)=O)c2ccccc2)nc(N2CCN(C(=O)C3(N)CCOCC3)CC2)c1C#N (stereo not shown) [Example 141, 2-((6-(4-(4-Aminotetrahydro-2H-pyran-4-carbonyl)piperazin-1-yl)-3,5-dicyano-4-ethylpyridin-2-yl)thio)-2-phenylacetamide, Trifluoroacetic Acid Salt] | D (Category D: ≥6.5) |  |  | < 316 | 
CCc1c(C#N)c(SC(C(N)=O)c2ccccc2)nc(N2CCC(F)(CN)CC2)c1C#N (stereo not shown) [Example 618, 2-((6-(4-(aminomethyl)-4-fluoropiperidin-1-yl)-3,5-dicyano-4-ethylpyridin-2-yl)thio)-2-phenylacetamide hydrochloride] | D (Category D: ≥6.5) |  |  | < 316 | 
CCc1c(C#N)c(SC(C(N)=O)c2ccccc2)nc(N2CC[C@@H](N)[C@@H](F)C2)c1C#N (relative stereo) [Example 545, rel-2-((6-cis-4-amino-3-fluoropiperidin-1-yl)-3,5-dicyano-4-ethylpyridin-2-yl)thio)-2-phenylacetamide] |  |  |  | < 316 | < 316
